In US9133207B2, “Tetrandrine derivatives with substituted 5-carbon, preparation method and use thereof” (Hangzhou Bensheng Pharmaceutical Co., Ltd., priority 2011, dated 2015):
≈ marks a conversion by molar mass, not a printed value.

Assays:
PC-3 (prostate cancer) = assay: Solid tumor cell growth inhibition, MTT, 72 h (Example 7); format: cell-based, human; conditions: Homo sapiens; 72 h, MTT, PC-3
Method in brief: (§1)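 Seeded 4000 cells/well, DMEM HG/10% FBS, 24 h at 37 °C/5% CO2; dosed with derivatives (multiple conc.); 72 h; MTT; % viability normalised to untreated = 100%.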

[1] = test system: PANC-1 (pancreatic cancer); assay: as above; format: cell-based, human; conditions: Homo sapiens; 72 h, MTT, PANC-1
Method in brief: as §1

[2] = test system: Hep-2 (laryngeal carcinoma); assay: as above; format: cell-based, human; conditions: Homo sapiens; 72 h, MTT, Hep 2
Method in brief: as §1

[3] = test system: CaES-17 (esophageal cancer cell); assay: as above; format: cell-based, human; conditions: Homo sapiens, CaEs17; 72 h, MTT, CAES-17
Method in brief: as §1

MG63 (osteosarcoma) = assay: as above; format: cell-based, human; conditions: Homo sapiens; 72 h, MTT, MG-63
Method in brief: as §1

[4] = test system: K562/adr (drug-resistant, chronic myeloid leukemia, CML); assay: Leukemia cell growth inhibition, MTT, 72 h (Example 5); format: cell-based, human; conditions: Homo sapiens, K562/Adr; 72 h, MTT
Method in brief: (§2)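 6000 cells/well in RPMI 1640 with 10% FBS exposed to graded derivative concentrations for 72 h at 37 °C, 5% CO2. Viable cell concentration then measured by MTT.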

[5] = test system: NB4 (acute promyelocytic leukemia, AML); assay: as above; format: cell-based, human; conditions: Homo sapiens; 72 h, MTT
Method in brief: as §2

[6] = test system: H9 (acute lymphoblastic leukemia, ALL); assay: as above; format: cell-based, human; conditions: Homo sapiens; 72 h, MTT
Method in brief: as §2

[7] = test system: Jurkat (acute lymphoblastic leukemia, ALL); assay: as above; format: cell-based, human; conditions: Homo sapiens, Jurkat; 72 h, MTT
Method in brief: as §2

[8] = test system: Kasumi-1 (acute myeloid leukemia M2 type, AML-M2); assay: as above; format: cell-based, human; conditions: Homo sapiens, Kasumi 1
Method in brief: as §2

[9] = test system: RPMI8226 (multiple myeloma); assay: Multiple myeloma cell growth inhibition, MTT, 72 h (Example 6); format: cell-based, human; conditions: Homo sapiens, RPMI-8226; 72 h, MTT, RPMI8226
Method in brief: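 RPMI8226 cells (6000 per well) in RPMI 1640 with 10% FBS were exposed to a range of tetrandrine derivative concentrations for 72 h at 37 °C under 5% CO2. Viable cell concentration was then measured by MTT.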

A549 (human lung cancer) = assay: Solid tumor cell growth inhibition, MTT, 72 h (Example 7); format: cell-based; conditions: Homo sapiens; 72 h, MTT, A549
Method in brief: as §1

[10] = test system: SK-OV-3 (ovarian cancer cell); assay: as above; format: cell-based; conditions: Homo sapiens
Method in brief: as §1

[11] = test system: Hela (human cervical cancer cell); assay: as above; format: cell-based; conditions: Homo sapiens; 72 h, MTT, Hela
Method in brief: as §1

[12] = test system: RKO (human colon adenocarcinoma cell); assay: as above; format: cell-based; conditions: Homo sapiens; 72 h, MTT, RKO
Method in brief: as §1

[13] = test system: CNE (nasopharyngeal carcinoma cell); assay: as above; format: cell-based; conditions: Homo sapiens
Method in brief: as §1

[14] = test system: Becap37 (human breast cancer cell); assay: as above; format: cell-based; conditions: Homo sapiens; 72 h, MTT, Becap-37
Method in brief: as §1

[15] = test system: Huh7 (human liver cancer cell); assay: as above; format: cell-based; conditions: Homo sapiens; 72 h, MTT, Huh-7
Method in brief: as §1

[16] = test system: MGC 803 (human gastric cancer cell); assay: as above; format: cell-based; conditions: Homo sapiens
Method in brief: as §1

[17] = test system: U87 MG (malignant glioma cell); assay: as above; format: cell-based; conditions: Homo sapiens, U-87 MG
Method in brief: as §1

Structure (SMILES) | IC50 (PC-3 (prostate cancer)) | IC90 (PC-3 (prostate cancer)) | IC50 [1] | IC90 [1] | IC50 [2] | IC90 [2] | IC50 [3] | IC90 [3] | IC50 (MG63 (osteosarcoma)) | IC90 (MG63 (osteosarcoma)) | IC50 [4] | IC90 [4] | IC50 [5] | IC90 [5] | IC50 [6] | IC90 [6] | IC50 [7] | IC90 [7] | IC50 [8] | IC90 [8] | also measured
COc1ccc2cc1Oc1ccc(cc1)C[C@H]1c3cc(c(OC)cc3CCN1C)Oc1c(OC)c(OC)c(COC(=O)c3cccs3)c3c1[C@H](C2)N(C)CC3 [BS-TE-215] | 7.08 µg/mL (≈ 9.28 µM) | 9 µg/mL (≈ 11.8 µM) | 5.11 µg/mL (≈ 6.7 µM) | 15 µg/mL (≈ 19.7 µM) | 9.9 µg/mL (≈ 13 µM) | 22.2 µg/mL (≈ 29.1 µM) | 8.69 µg/mL (≈ 11.4 µM) | 27 µg/mL (≈ 35.4 µM) | 6.2 µg/mL (≈ 8.13 µM) | 10.4 µg/mL (≈ 13.6 µM) | 2.18 µg/mL (≈ 2.86 µM) | 8.89 µg/mL (≈ 11.7 µM) | 2.6 µg/mL (≈ 3.41 µM) | 4 µg/mL (≈ 5.24 µM) | 4.86 µg/mL (≈ 6.37 µM) | 7.6 µg/mL (≈ 9.96 µM) | 4.64 µg/mL (≈ 6.08 µM) | 10.9 µg/mL (≈ 14.3 µM) | 4.92 µg/mL (≈ 6.45 µM) | 15.5 µg/mL (≈ 20.3 µM) | IC50 [9]: 0.87 µg/mL (≈ 1.14 µM); IC90 [9]: 5.13 µg/mL (≈ 6.72 µM); IC50 (A549 (human lung cancer)): 11.9 µg/mL (≈ 15.6 µM); IC90 (A549 (human lung cancer)): > 16 µg/mL; IC50 [10]: 7.5 µg/mL (≈ 9.83 µM); IC90 [10]: > 16 µg/mL; IC50 [11]: 6.52 µg/mL (≈ 8.55 µM); IC90 [11]: 13 µg/mL (≈ 17.1 µM); IC50 [12]: 6.04 µg/mL (≈ 7.92 µM); IC90 [12]: 9.22 µg/mL (≈ 12.1 µM); IC50 [13]: 6.97 µg/mL (≈ 9.14 µM); IC90 [13]: 12.2 µg/mL (≈ 16 µM); IC50 [14]: 8.3 µg/mL (≈ 10.9 µM); IC90 [14]: 15 µg/mL (≈ 19.7 µM); IC50 [15]: 3.54 µg/mL (≈ 4.64 µM); IC90 [15]: 9.62 µg/mL (≈ 12.6 µM); IC50 [16]: 5.78 µg/mL (≈ 7.58 µM); IC90 [16]: 8 µg/mL (≈ 10.5 µM); IC50 [17]: 3.14 µg/mL (≈ 4.12 µM); IC90 [17]: 8 µg/mL (≈ 10.5 µM)
COCC(C)OCc1c2c3c(c(OC)c1OC)Oc1cc4c(cc1OC)CCN(C)[C@H]4Cc1ccc(cc1)Oc1cc(ccc1OC)C[C@@H]3N(C)CC2 (some centres unmarked) [BS-TE-406] | 3.32 µg/mL (≈ 4.58 µM) | 6.95 µg/mL (≈ 9.59 µM) | 2.73 µg/mL (≈ 3.77 µM) | 16 µg/mL (≈ 22.1 µM) | 2.4 µg/mL (≈ 3.31 µM) | 6.87 µg/mL (≈ 9.48 µM) | 3.94 µg/mL (≈ 5.44 µM) | 16.4 µg/mL (≈ 22.7 µM) | 2.49 µg/mL (≈ 3.43 µM) | 6.36 µg/mL (≈ 8.77 µM) | 1.44 µg/mL (≈ 1.99 µM) | 5.38 µg/mL (≈ 7.42 µM) | 1.7 µg/mL (≈ 2.35 µM) | 5.5 µg/mL (≈ 7.59 µM) | 1.38 µg/mL (≈ 1.9 µM) | 3.41 µg/mL (≈ 4.7 µM) | 1.57 µg/mL (≈ 2.17 µM) | 9.9 µg/mL (≈ 13.7 µM) | 1.33 µg/mL (≈ 1.83 µM) | 6.67 µg/mL (≈ 9.2 µM) | IC50 [9]: 0.52 µg/mL (≈ 0.717 µM); IC90 [9]: 2.81 µg/mL (≈ 3.88 µM); IC50 (A549 (human lung cancer)): 8.4 µg/mL (≈ 11.6 µM); IC90 (A549 (human lung cancer)): > 16 µg/mL; IC50 [10]: 7.1 µg/mL (≈ 9.79 µM); IC90 [10]: > 16 µg/mL; IC50 [11]: 1.07 µg/mL (≈ 1.48 µM); IC90 [11]: 2.89 µg/mL (≈ 3.99 µM); IC50 [12]: 0.89 µg/mL (≈ 1.23 µM); IC90 [12]: 1.99 µg/mL (≈ 2.75 µM); IC50 [13]: 1.6 µg/mL (≈ 2.21 µM); IC90 [13]: 3.49 µg/mL (≈ 4.81 µM); IC50 [14]: 3.5 µg/mL (≈ 4.83 µM); IC90 [14]: 10.8 µg/mL (≈ 14.9 µM); IC50 [15]: 2.31 µg/mL (≈ 3.19 µM); IC90 [15]: 3.43 µg/mL (≈ 4.73 µM); IC50 [16]: 2.87 µg/mL (≈ 3.96 µM); IC90 [16]: 8 µg/mL (≈ 11 µM); IC50 [17]: 2.86 µg/mL (≈ 3.95 µM); IC90 [17]: 6.66 µg/mL (≈ 9.19 µM)
